According to publication PMC10946790, “A Functional Chemiluminescent Probe for in Vivo Imaging of Natural Killer Cell Activity Against Tumours” (Angewandte Chemie (Weinheim an Der Bergstrasse, Germany), 2021):
Where a SMILES comes first, the peptide text is derived from it. The star is where a group is joined. AMC = Cc1cc(=O)oc2cc(N*)ccc12

Target: T1, hr‐granzyme B (Homo sapiens, UniProt P10144)
T1 construct: in the absence and presence of active human recombinant (hr)‐granzyme B
Assay: Time-course signal-to-noise ratios after reaction with granzyme B
Format: biochemical
Details: probe 25 μM, hr-granzyme B 20 nM, aqueous buffer, 37 °C, over 30 minutes; mean ± SEM, n=6
Description: In vitro characterisation assays. Enzymatic assays were run in a 384-well format in a PCR opaque microplate (Thermo Scientific). All experiments were performed at least in triplicate. Dilutions and reactions using human GZM B and human neutrophil elastase were prepared in 50 mM Tris-HCl and 100 mM NaCl (pH 7.4). GZM A assays were performed in 25 mM HEPES, 0.1% CHAPS and 10 mM DTT (pH 7.5). Dilutions and incubations with CASP8 and CASP9 were prepared in 50 mM HEPES, 100 mM NaCl, 0.1% Triton X-100, 10 mM DTT, 1 mM EDTA and 10% glycerol (pH 7.4). Any other tested biomolecules were prepared in PBS. Proteolytic activity was determined by calculating the fold change in chemiluminescence signal (or fluorescence signal in the case of Ac - IEPD-AMC) over background signal provided by the corresponding dilution of the probes with the enzyme using a spectrophotometer (Synergy H1 Hybrid Reader, BioTek) at 37°C.
Unless otherwise stated, probes were utilized at a concentration of 100 μM. Enzyme concentration used: 20 nM (except CASP9, which was used at 200 nM) and all other biomolecules were tested at 100 μM. In the case where an inhibitor was used, the enzyme was pre-incubated for 1 h with the inhibitor (100 µM) before addition of probe 1.
Cell culture. […]

T1 sequence (P10144 21-247): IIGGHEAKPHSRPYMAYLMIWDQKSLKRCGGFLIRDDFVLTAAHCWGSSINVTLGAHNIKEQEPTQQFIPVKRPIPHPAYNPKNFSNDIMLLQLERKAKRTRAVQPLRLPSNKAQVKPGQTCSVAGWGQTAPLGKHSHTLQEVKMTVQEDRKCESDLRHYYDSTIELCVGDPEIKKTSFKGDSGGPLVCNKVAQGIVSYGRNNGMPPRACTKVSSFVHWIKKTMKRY

Signal‐to‐noise (S/N) ratio, fluorescence: under 5
SMILES: CC[C@H](C)[C@H](NC(C)=O)C(=O)N[C@@H](CCC(=O)O)C(=O)N1CCC[C@H]1C(=O)N[C@@H](CC(=O)O)C(=O)Nc1ccc2c(C)cc(=O)oc2c1 [Ac‐IEPD‐AMC] (Ac-IEPD-{AMC})
